Results on 46 compounds are retold here after patent US20050288347A1, “Certain triazole-based compounds, compositions, and uses thereof” (priority 2004, published 2005).

Entries after “also recorded” stand apart in the source; their conditions may differ.

The first assay has as its target protein kinase. The assay can be described thus: HTS ATP-utilizing enzyme assay, off-chip mobility-shift format (Caliper HTS 250). It counts as biochemical, human. The note with it: kinase(s) for which the compound exhibits protein kinase inhibitory activity; test compound 10 μM; active = greater than three-sigma from the mean activity of inactive compounds. The essentials:
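Single-point screen at 10 μM compound in HEPES pH 7.5 buffer with Triton X-100 and BSA, 2.5 h at 20–22 °C. Substrate-to-phosphopeptide ratio measured by off-chip microfluidic mobility shift; EDTA wells as 100% and DMSO wells as 0% control, hits called at three-sigma limits.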
As for `FC(F)(F)c1cccc(NCc2nnc(S)n2-c2ccccc2)c1`, the Kinase entry is recorded as “GSK3-α”.
As to `COCCCn1c(C)nnc1SCC(=O)Nc1ccccc1[N+](=O)[O-]`, the Kinase result is reported as “FYN”.
On to `Sc1nnc(COc2ccc3ccccc3c2)n1-c1ccccc1` [5-((naphthalen-2-yloxy)methyl)-4-phenyl-4H-1,2,4-triazole-3-thiol], for which the Kinase result is “AURORA-A”.
On the same count and under the same terms, the same measure for `Cc1ccc(NCc2nnc(SCC#N)n2-c2ccc(Cl)cc2)cc1`: “PDGFRR-α and CDK1”; for `COc1ccc(NCc2nnc(SCC(N)=O)n2C)cc1`: “PDGFRR-α and FYN”.
On the same count and under the same terms, the same measure for `CCn1c(SCC(=O)OC)nnc1-c1ccc(O)cc1` [methyl 2-(4-ethyl-5-(4-hydroxyphenyl)-4H-1,2,4-triazol-3-ylthio)acetate]: “GSK3-β; also recorded: GSK3-α; also recorded: CHEK1”.
Same read-out and setting: with `CCOc1ccc(NCc2nnc(SCC#N)n2-c2ccc(C)cc2)cc1` the entry was “FYN”; with `COCCn1c(SCC(=O)N2c3ccccc3Sc3ccccc32)nnc1-c1cc2ccccc2cc1O`, “DAPK1”; with `CCOC(=O)c1c(NC(=O)CSc2nnc(CNc3ccc(OC)cc3)n2C)sc(C(C)=O)c1C`, “AURORA-A and FYN and PDGFRR-α”.
With `O=C(O)CSc1nnc(-c2cccnc2)n1Cc1ccco1` [2-(4-(furan-2-ylmethyl)-5-(pyridin-3-yl)-4H-1,2,4-triazol-3-ylthio)acetic acid], the Kinase result is on record as “DAPK1; also recorded: GSK3-β; also recorded: AURORA-A”.
Consider `Cn1c(SCC(N)=O)nnc1-c1ccc([N+](=O)[O-])cc1` [2-(4-methyl-5-(4-nitrophenyl)-4H-1,2,4-triazol-3-ylthio)acetamide], for which the Kinase entry was “PDGFRR-α and FYN”.
On to `NC(=O)CSc1nnc(-c2ccc(NS(=O)(=O)c3ccccc3)cc2)n1-c1ccccc1`, for which the Kinase entry is reported as “AURORA-A”.
The same measure, in the same setting: the same measure for `NC(=O)CSc1nnc(CNc2ccc(F)cc2)n1Cc1ccccc1`: “GSK3-β and AKT1 and GSK3-α”.
Regarding `O=C(CSc1nnc(-c2ccc(O)cc2)n1-c1ccccc1)CC(=O)Nc1ccccc1`, the Kinase result is “AURORA-A; also recorded: GSK3-α”.
Regarding `O=C(CSc1nnc(CNc2ccc(F)cc2)n1Cc1ccccc1)Nc1cccc(O)c1`, the Kinase result was “CHEK2”.
In the case of `Cn1c(COc2cccc3ccccc23)nnc1SCC(=O)O`, the Kinase entry is listed as “CDK2-cyclinA; also recorded: AURORA-A”.
On to `CCn1c(CNc2cccc(Cl)c2)nnc1SCC(=O)NCc1ccco1`, for which the Kinase entry is reported as “PAK2”.
`Cc1nnc(SCC(=O)N2CCCc3ccccc32)n1-c1ccccc1`: the Kinase entry is “c-TAK1”.
Still for that read-out and setting: with `O=C(CSc1nnc(Cn2nnc(-c3ccccc3)n2)n1-c1ccccc1)Nc1ccccc1` the entry was “GSK3-α”; with `CC(C)N(C(=O)CSc1nnc(-c2ccccc2N)n1C)C(C)C`, “FYN and PRAK”; with `CCOc1ccc(Nc2nnc(SCC(=O)c3cc(C(C)(C)C)c(O)c(C(C)(C)C)c3)n2-c2ccc(OCC)cc2)cc1`, “FYN”.
As for `CCOC(=O)c1c(NC(=O)CSc2nnc(CNc3ccc(OC)cc3)n2C)sc(C)c1C`, the Kinase result was “PDGFRR-α; also recorded: FLT-3; also recorded: AURORA-A”.
With `Cn1c(SCSC#N)nnc1-c1ccc(S(=O)(=O)N2CCOCC2)cc1`, the Kinase result was “GSK3-β”.
Still for that read-out and setting: the same measure for `Cn1c(SCC(=O)c2ccccc2)nnc1-c1ccc(O)cc1`: “GSK3-β and GSK3-α and MSK1”; for `C=C(C)Cn1c(SCC(=O)O)nnc1-c1ccc(OC)cc1`: “MSK1”; for `COc1ccc(NCc2nnc(SCC(=O)O)n2-c2ccc(C)cc2)cc1`: “FYN”.
On the same count and under the same terms, the same measure for `CCOC(=O)CSc1nnc(-c2ccccc2O)n1-c1ccccc1OC`: “AURORA-A”.

Still in this assay, the particulars now being: test compound 10 μM; active = activity greater than three-sigma from the mean of the predominately inactive population for that enzyme.
As for `CCOCCSc1nnc(-c2ccc([N+](=O)[O-])cc2)[nH]1`, the “protein kinase against which the compound exhibits inhibitory activity (Table 3)” value is on record as “FLT-3; also recorded: AURORA-A; also recorded: GSK3-α”.
On the same count and under the same terms, with `COc1ccccc1-n1c(SCc2ccc(F)c(F)c2)nnc1-c1cccc(Cl)c1` the entry was “ROCK2”; with `CCOCCSc1nnc(-c2ccccc2)[nH]1` [3-(2-ethoxyethylthio)-5-phenyl-4H-1,2,4-triazole], 3-(2-ethoxyethylthio)-5-phenyl-4H-1,2,4-triazole AURORA-A and FLT-3 and DYRK2.
Still for that read-out and setting: the same measure for `CCn1c(SCc2ccccc2Br)nnc1-c1cc(-c2ccccc2)nc2ccccc12` [4-(5-(2-bromobenzylthio)-4-ethyl-4H-1,2,4-triazol-3-yl)-2-phenylquinoline]: “CHEK2”; for `Cn1c(CNc2ccc(F)cc2)nnc1SCCN1CCOCC1`: “PDGFRR-α”; for `Clc1ccc(CSc2nnc(-c3ccncc3)n2-c2ccccc2)cc1` [4-(5-(4-chlorobenzylthio)-4-phenyl-4H-1,2,4-triazol-3-yl)pyridine]: “AURORA-A and PKA and MSK1”.
The same measure, in the same setting: the same measure for `CC(C)=CCSc1nnc(CCC2CCCC2)n1CCCN1CCOCC1`: “GSK3-α”; for `CCOCCSc1nnc(-c2cccc(C)c2)[nH]1`: “AURORA-A; also recorded: FLT-3; also recorded: GSK3-β”; for `COc1cc(CSc2nnc[nH]2)c(OC)cc1CSc1nnc[nH]1`: “CSK and LCK”.
With `CCOc1ccc(NCc2nnc(SCCN3CCOCC3)n2-c2ccc(C)cc2)cc1`, the “protein kinase against which the compound exhibits inhibitory activity (Table 3)” value is listed as “FYN”.
The same measure, in the same setting: with `COc1ccccc1-c1nnc(SCCC(=O)O)n1-c1cccc(Cl)c1` the entry was “CHEK2”.
On the same count and under the same terms, the same measure for `CCOC(=O)c1ccc(CSc2nnc(-c3ccc(OC(F)(F)F)cc3)[nH]2)o1`: “FLT-3; also recorded: GSK3-β”.
On to `CCn1c(COc2ccc(Cl)cc2)nnc1SCCN1CCCCC1`, for which the “protein kinase against which the compound exhibits inhibitory activity (Table 3)” value was “INSR and PDGFRR-α and CHEK1”.
With `CCn1c(SCCSc2nnc(C3CCCCC3)n2CC)nnc1C1CCCCC1` [1,2-bis(5-cyclohexyl-4-ethyl-4H-1,2,4-triazol-3-ylthio)ethane], the “protein kinase against which the compound exhibits inhibitory activity (Table 3)” value is given as “CHEK2”.
On the same count and under the same terms, the same measure for `Cn1c(SCc2ccccc2)nnc1-c1ccc(O)cc1` [4-(5-(benzylthio)-4-methyl-4H-1,2,4-triazol-3-yl)phenol]: “GSK3-β and GSK3-α and MSK1”.
On to `Cc1nnc(SCc2nc3ccccc3[nH]2)[nH]1` [2-((5-methyl-4H-1,2,4-triazol-3-ylthio)methyl)-1H-benzo[d]imidazole], for which the “protein kinase against which the compound exhibits inhibitory activity (Table 3)” value is “DYRK2; also recorded: FLT-3; also recorded: AURORA-A”.
For `CN(C)CCCSc1nnc(C(C)(C)C)[nH]1` [3-(5-tert-butyl-4H-1,2,4-triazol-3-ylthio)-N,N-dimethylpropan-1-amine], the “protein kinase against which the compound exhibits inhibitory activity (Table 3)” value is recorded as “c-TAK1”.
On to `COc1ccc(-n2c(SCCC(=O)O)nnc2-c2ccc(NC(=O)c3ccccc3)cc2)cc1`, for which the “protein kinase against which the compound exhibits inhibitory activity (Table 3)” value is given as “CHEK2; also recorded: AURORA-A”.
On the same count and under the same terms, the same measure for `O=[N+]([O-])c1ccc(-c2nnc(SCc3ccncc3)[nH]2)cc1` [4-((5-(4-nitrophenyl)-4H-1,2,4-triazol-3-ylthio)methyl)pyridine]: “FLT-3; also recorded: GSK3-β; also recorded: GSK3-α”.
